Assay results published in patent US10597388B2, “Pyridazinone herbicides” (FMC CORPORATION, priority 2014, dated 2020).

What was measured:
Experiment in all cases: Test D controlled growth environment herbicide test, pre- and postemergence
Type in all cases: in vivo
[1] = test system: mustard, wild (wild mustard, Sinapis arvensis)
How it was run: (§1)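 Rating is visual, 0–100 scale (100 = complete control), made against untreated plants 14–21 d after treatment in controlled growth conditions. Postemergence sprays went onto 1- to 4-leaf plants in peat medium; preemergence sprays onto silt loam after sowing; formulation included a surfactant.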

[2] = test system: speedwell (bird's-eye speedwell, Veronica persica)
How it was run: as §1

[3] = test system: buckwheat, wild (wild buckwheat, Polygonum convolvulus)
How it was run: as §1

[4] = test system: radish, wild (wild radish, Raphanus raphanistrum)
How it was run: as §1

[5] = test system: windgrass (Apera spica-venti)
How it was run: as §1

[6] = test system: field violet (Viola arvensis)
How it was run: as §1

[7] = test system: bluegrass (annual bluegrass, Poa annua)
How it was run: as §1

[8] = test system: pigweed (Amaranthus retroflexus)
How it was run: as §1

[9] = test system: canarygrass (Phalaris minor)
How it was run: as §1

[10] = test system: Russian thistle (Salsola kali)
How it was run: as §1

[11] = test system: oilseed rape (Brassica napus)
How it was run: as §1

[12] = test system: galium (catchweed bedstraw, Galium aparine)
How it was run: as §1

kochia (Kochia scoparia) = test system: kochia (Kochia scoparia)
How it was run: as §1

[13] = Postemergence, 31 g ai/ha, scale 0 to 100 (0 no effect, 100 complete control)
[14] = Postemergence, 125 g ai/ha, visual rating on scale 0 (no effect) to 100 (complete control), 14 to 21 d
[15] = Postemergence, 250 g ai/ha, scale 0 to 100 (0 no effect, 100 complete control)
[16] = Preemergence, 125 g ai/ha, scale 0 to 100 (0 no effect, 100 complete control)
[17] = Preemergence, 250 g ai/ha, scale 0 to 100 (0 no effect, 100 complete control)
[18] = postemergence, 62 g ai/ha, scale 0 to 100, 0 no effect, 100 complete control
[19] = Preemergence, 62 g ai/ha, scale 0 to 100 (0 no effect, 100 complete control)

C#CCOC(=O)Oc1c(C)nn(C)c(=O)c1-c1c(C)sc2ccc(C)cc12 [Compound 87]
Mustard, Wild plant response rating [1, 13]: 10
Plant response rating, Mustard, Wild [1, 14]: 25
Plant response rating, Mustard, Wild [1, 15]: 60
Plant response rating (scale of 0 to 100), Mustard, Wild ([1]; Preemergence, 31 g ai/ha): 0
Plant response rating (scale of 0 to 100), Mustard, Wild ([1]; Preemergence, 62 g ai/ha): 0
Plant response rating, Mustard, Wild [1, 16]: 0
Plant response rating, Mustard, Wild [1, 17]: 25
Plant response rating, Mustard, Wild [1, 18]: 35
Speedwell plant response rating [2, 13]: 70
Plant response rating, Speedwell [2, 14]: 75
Plant response rating, Speedwell [2, 15]: 80
Plant response rating (scale of 0 to 100), Speedwell ([2]; Preemergence, 31 g ai/ha): 80
Plant response rating (scale of 0 to 100), Speedwell ([2]; Preemergence, 62 g ai/ha): 85
Plant response rating, Speedwell [2, 16]: 90
Plant response rating, Speedwell [2, 17]: 100
Plant response rating, Speedwell [2, 18]: 75
Buckwheat, Wild plant response rating [3, 13]: 85
Plant response rating, Buckwheat, Wild [3, 14]: 100
Plant response rating, Buckwheat, Wild [3, 15]: 100
Plant response rating (scale of 0 to 100), Buckwheat, Wild ([3]; Preemergence, 31 g ai/ha): 0
Plant response rating, Buckwheat, Wild [3, 19]: 0
Plant response rating, Buckwheat, Wild [3, 16]: 0
Plant response rating, Buckwheat, Wild [3, 17]: 60
Plant response rating, Buckwheat, Wild [3, 18]: 100
Radish, Wild plant response rating [4, 13]: 15
Plant response rating, Radish, Wild [4, 14]: 30
Plant response rating, Radish, Wild [4, 15]: 60
Plant response rating (scale of 0 to 100), Radish, Wild ([4]; Preemergence, 31 g ai/ha): 45
Plant response rating (scale of 0 to 100), Radish, Wild ([4]; Preemergence, 62 g ai/ha): 65
Plant response rating, Radish, Wild [4, 16]: 75
Plant response rating, Radish, Wild [4, 17]: 95
Plant response rating, Radish, Wild [4, 18]: 20
Windgrass plant response rating [5, 13]: 80
Plant response rating, Windgrass [5, 14]: 85
Plant response rating, Windgrass [5, 15]: 100
Plant response rating (scale of 0 to 100), Windgrass ([5]; Preemergence, 31 g ai/ha): 80
Plant response rating (scale of 0 to 100), Windgrass ([5]; Preemergence, 62 g ai/ha): 80
Plant response rating, Windgrass [5, 16]: 85
Plant response rating, Windgrass [5, 17]: 100
Plant response rating, Windgrass [5, 18]: 85
Field Violet plant response rating [6, 13]: 80
Plant response rating, Field Violet [6, 14]: 100
Plant response rating, Field Violet [6, 15]: 100
Plant response rating (scale of 0 to 100), Field Violet ([6]; Preemergence, 31 g ai/ha): 80
Plant response rating (scale of 0 to 100), Field Violet ([6]; Preemergence, 62 g ai/ha): 85
Plant response rating, Field Violet [6, 16]: 95
Plant response rating, Field Violet [6, 17]: 100
Plant response rating, Field Violet [6, 18]: 85
Bluegrass plant response rating [7, 13]: 25
Plant response rating, Bluegrass [7, 14]: 45
Plant response rating, Bluegrass [7, 15]: 45
Plant response rating (scale of 0 to 100), Bluegrass ([7]; Preemergence, 31 g ai/ha): 25
Plant response rating, Bluegrass [7, 19]: 35
Plant response rating, Bluegrass [7, 16]: 45
Plant response rating, Bluegrass [7, 17]: 70
Plant response rating, Bluegrass [7, 18]: 25
Pigweed plant response rating [8, 13]: 95
Plant response rating, Pigweed [8, 14]: 100
Plant response rating, Pigweed [8, 15]: 100
Plant response rating (scale of 0 to 100), Pigweed ([8]; Preemergence, 31 g ai/ha): 50
Plant response rating (scale of 0 to 100), Pigweed ([8]; Preemergence, 62 g ai/ha): 100
Plant response rating, Pigweed [8, 16]: 100
Plant response rating, Pigweed [8, 17]: 100
Plant response rating, Pigweed [8, 18]: 100
Canarygrass plant response rating [9, 13]: 55
Plant response rating, Canarygrass [9, 14]: 85
Plant response rating, Canarygrass [9, 15]: 90
Plant response rating (scale of 0 to 100), Canarygrass ([9]; Preemergence, 31 g ai/ha): 85
Plant response rating (scale of 0 to 100), Canarygrass ([9]; Preemergence, 62 g ai/ha): 90
Plant response rating, Canarygrass [9, 16]: 90
Plant response rating, Canarygrass [9, 17]: 95
Plant response rating, Canarygrass [9, 18]: 80
Russian Thistle plant response rating [10, 13]: 60
Plant response rating, Russian Thistle [10, 14]: 65
Plant response rating, Russian Thistle [10, 15]: 75
Plant response rating (scale of 0 to 100), Russian Thistle ([10]; Preemergence, 31 g ai/ha): 5
Plant response rating (scale of 0 to 100), Russian Thistle ([10]; Preemergence, 62 g ai/ha): 15
Plant response rating, Russian Thistle [10, 16]: 85
Plant response rating, Russian Thistle [10, 17]: 100
Plant response rating, Russian Thistle [10, 18]: 65
Oilseed Rape plant response rating [11, 13]: 15
Plant response rating, Oilseed Rape [11, 14]: 65
Plant response rating, Oilseed Rape [11, 15]: 75
Plant response rating (scale of 0 to 100), Oilseed Rape ([11]; Preemergence, 31 g ai/ha): 15
Plant response rating (scale of 0 to 100), Oilseed Rape ([11]; Preemergence, 62 g ai/ha): 30
Plant response rating, Oilseed Rape [11, 16]: 30
Plant response rating, Oilseed Rape [11, 17]: 45
Plant response rating, Oilseed Rape [11, 18]: 40
Galium plant response rating [12, 13]: 85
Plant response rating, Galium [12, 14]: 100
Plant response rating, Galium [12, 15]: 100
Plant response rating (scale of 0 to 100), Galium ([12]; Preemergence, 31 g ai/ha): 15
Plant response rating (scale of 0 to 100), Galium ([12]; Preemergence, 62 g ai/ha): 40
Plant response rating, Galium [12, 16]: 60
Plant response rating, Galium [12, 17]: 80
Plant response rating, Galium [12, 18]: 100
Kochia plant response rating (kochia (Kochia scoparia); [13]): 85
Plant response rating, Kochia (kochia (Kochia scoparia); [14]): 90
Plant response rating, Kochia (kochia (Kochia scoparia); [15]): 95
Plant response rating (scale of 0 to 100), Kochia (kochia (Kochia scoparia); Preemergence, 31 g ai/ha): 0
Plant response rating (scale of 0 to 100), Kochia (kochia (Kochia scoparia); Preemergence, 62 g ai/ha): 55
Plant response rating, Kochia (kochia (Kochia scoparia); [16]): 100
Plant response rating, Kochia (kochia (Kochia scoparia); [17]): 100
Plant response rating, Kochia (kochia (Kochia scoparia); [18]): 90
